Test results from patent US5886011A, “Piperidine derivatives as substance P antagonists” (Hisamitsu Pharmaceutical Co., Inc., priority 1995, dated 1999).

What was measured:
Substance P = experiment: Antagonism test on Substance P-induced airway edema; type: in vivo, guinea pig (hartley male); details: Cavia porcellus, po, compared to the control group, read-out: Inhibition Rate (airway edema, dye transudated into trachea and main bronchi); for inhibition in vivo at 1 mg/kg: 1 mg/kg orally, thirty minutes before induction
Method: C. Antagonism Test on Substance P-induced Airway Edema
20 mg/kg of Evans' Blue and 1 nm/kg Substance P containing 200 I.U./kg of heparin were administered intravenously to hartley male guinea pigs in order to induce airway edema. After ten minutes, the guinea pigs were exsanguinated deadly. The amounts of the dye transudated into trachea and main bronchi were determined. 1 mg/kg of the subject compounds were administered orally at thirty minutes before the induction. […] Further, for comparison, the following compounds A and B were used.

cisplatin-induced emesis = experiment: Anti-emetic effect against cisplatin-induced emesis; type: in vivo, ferret (male)
Method: D. Anti-emetic Effect against Cisplatin-induced Emesis
The test was carried out using male ferret (approx. 1.5 kg.). Emesis was induced by intraperitoneal administration of cisplatin (10 mg/kg). 1 mg/kg of the subject compounds were administered orally just after the cisplatin administration. The results will be shown in Table 3 as the inhibition rates compared to the control group, using the number of vomits as indexes. Further, for comparisons, the following compounds A and C were used.

[1] = tested on: Substance P (guinea pig ileum); experiment: Bioassay test: Substance P-induced contraction of guinea pig ileum strips; details: 10^-7 M compound; contraction by 10^-8 M Substance P regarded as 100%
Method: B. Bioassay Test […] After exsanguinating guinea pigs (body weight: 500-600 g) deadly, ileum was removed and 2 cm of ileum strips were prepared. In a Tyrode's solution (10 ml, 37° C.) in which air is passed, containing 5.2 μM atropine and 4.1 μM indomethacin, the strips having 0.5 g resting tension was suspended, and contractions of muscle were recorded on a recording device (RTA-1200, manufactured by Nihon Kohden) via an isotonic transducer (TB-612T, manufactured by Nihon Kohden). Using three specimens per one group, effects of the subject drugs on the muscle contraction caused by 10^-8 M Substance P were determined.

[2] = target: T1, Substance P receptor (guinea pig ileum longitudinal muscle) (Cavia porcellus, UniProt P30547); experiment: Receptor-binding test ([125I]SP ligand, guinea pig ileum longitudinal muscle receptor samples); details: 10^-8 M compound; [125I]SP 50 pM, 22° C., 20 minutes
T1 construct: ileum was removed and the longitudinal muscle was stripped off; from tissue; host or cells: guinea pig ileum longitudinal muscle, washed membrane pellets
T1 sequence (P30547 whole entry): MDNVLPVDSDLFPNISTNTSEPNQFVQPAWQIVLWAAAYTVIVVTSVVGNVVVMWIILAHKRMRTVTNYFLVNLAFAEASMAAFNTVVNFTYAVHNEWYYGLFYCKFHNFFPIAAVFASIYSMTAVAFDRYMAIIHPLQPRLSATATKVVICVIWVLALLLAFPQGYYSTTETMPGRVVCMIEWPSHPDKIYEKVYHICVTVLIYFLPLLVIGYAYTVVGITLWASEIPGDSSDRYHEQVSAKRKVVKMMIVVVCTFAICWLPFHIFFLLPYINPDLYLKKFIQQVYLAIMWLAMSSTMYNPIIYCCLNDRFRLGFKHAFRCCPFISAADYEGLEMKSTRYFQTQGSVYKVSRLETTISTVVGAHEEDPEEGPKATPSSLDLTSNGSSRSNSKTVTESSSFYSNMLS
Method: To the longitudinal muscles, 20 times of the wet weight of the buffer solution (1) (50 mM tris-HCl buffer solution containing 2 mM MgCl2 and 0.1 mM phenyl methyl sulfonyl-fluoride, pH 7.4) was added. The mixture was homogenized under ice-cooling and centrifuged at 48,000×G for 15 minutes. After removing the supernatant, the pellets were re-suspended in the buffer solution (1) and centrifuged at 48,000×G for 15 minutes. The buffer solution (2) (50 mM tris.HCl buffer solution containing 10 mM ethylenediaminetetraacetic acid and 300 mM KCl, pH 7.4) was added to the pellets and suspended to be reacted under ice-cooling for 60 minutes. The resulted reaction materials were centrifuged at 48,000×G for 15 minutes. After suspending the pellets in the buffer solution (1) and distributing, the mixture were centrifuged at 48,000×G for 15 minutes. The pellets were stored at -80° C. until used as receptor samples.
Thus obtained receptor samples were suspended in 50 mM tris-HCl buffer solution to be used. As the buffer solution, binding buffer solution (tris.HCl buffer solution containing 0.02% bovine serum albumin, 40 μg/ml bacitracin, 4 μg/ml chymostatin, 4 μg/ml leupeptin and 3 mM MnCl2, pH7.4) was used.

SD rats = experiment: Toxicity test, seven days; type: in vivo, rat (male SD); details: 3, 10 and 30 mg/kg, male SD rats
Method: 3, 10 and 30 mg/kg of the compound of Example 46 are administered to five male SD rats per one group for seven days. The compound had no influence on body weights gains, organ weights, numbers of erythrocytes nor numbers of leukocytes.

[3] = 1 mg/kg orally just after cisplatin (10 mg/kg i.p.), compared to the control group

For `COc1ccccc1CN[C@H]1CCCN[C@H]1c1ccccc1.Cl` [Compound A, (2S,3S)-3-(2-methoxybenzyl)amino-2-phenylpiperidine hydrochloride, reference compound], the inhibition in vivo at 10 mg/kg (Substance P; 10 mg/kg (comparison compound), orally) was 12% and the “Inhibition Rate (number of vomits)” value (cisplatin-induced emesis; 10 mg/kg (comparison compound), orally just after cisplatin (10 mg/kg i.p.)) was 19%.

For `CC(C)c1cc2c(c(CN[C@H]3CCCN[C@H]3c3ccccc3)c1)OCC2.Cl` [Example 23, (2S,3S)-3-[(5-isopropyl-2,3-dihydrobenzofuran-7-yl)methyl]amino-2-phenylpiperidine hydrochloride], the “Contriction Inhibition” value [1] was 80.3%, the inhibition in vivo at 1 mg/kg (Substance P) was 89% and the “Inhibition Rate (number of vomits)” value (cisplatin-induced emesis; [3]) was 70%. For the same compound, the inhibition at 0.01 µM [2] was 83.2%.

For `Cl.c1ccc([C@@H]2NCCC[C@@H]2NCc2cc(C3CCCC3)cc3c2OCC3)cc1` [Example 25, (2S,3S)-3-[(5-cyclopentyl-2,3-dihydrobenzofuran-7-yl)methyl]amino-2-phenylpiperidine hydrochloride], the “Contriction Inhibition” value [1] was 85.1%, the inhibition in vivo at 1 mg/kg (Substance P) was 90% and the “Inhibition Rate (number of vomits)” value (cisplatin-induced emesis; [3]) was 73%. The inhibition at 0.01 µM [2] was 89.2%.

In the case of `CSc1cc2c(c(CN[C@H]3CCCN[C@H]3c3ccccc3)c1)OCC2.Cl` [Example 46, (2S,3S)-3-[(5-methylthio-2,3-dihydrobenzofuran-7-yl)methyl]amino-2-phenylpiperidine hydrochloride], the “Contriction Inhibition” value [1] is reported as 72.3%, the “influence on body weights gains” value (SD rats) is reported as “no influence” and the “influence on numbers of erythrocytes” value (SD rats) is reported as “no influence”. The “influence on numbers of leukocytes” value (SD rats) was “no influence”, the “influence on organ weights” value (SD rats) was “no influence” and the inhibition in vivo at 1 mg/kg (Substance P) was 72%. The “Inhibition Rate (number of vomits)” value (cisplatin-induced emesis; [3]) was 60% and the inhibition at 0.01 µM [2] was 65.3%.

For `Cl.FC(F)(F)Oc1cc2c(c(CN[C@H]3CCCN[C@H]3c3ccccc3)c1)OCC2` [Example 53, (2S,3S)-3-[(5-trifluoromethoxy-2,3-dihydrobenzofuran-7-yl)methyl]amino-2-phenylpiperidine hydrochloride], the “Contriction Inhibition” value [1] was 69.3%, the inhibition in vivo at 1 mg/kg (Substance P) was 69% and the “Inhibition Rate (number of vomits)” value (cisplatin-induced emesis; [3]) was 65%. The inhibition at 0.01 µM [2] was 53.5%.
